According to ChEMBL document CHEMBL3112534, “A click chemistry approach to pleuromutilin derivatives. Part 3: extended footprinting analysis and excellent MRSA inhibition for a derivative with an adenine phenyl side chain” (2014):
≈ marks a conversion by molar mass, not a printed value. Calls of active or inactive are those of the source. The calls are words filed in the database; no cut-off is given here.

How the values were obtained:
Staphylococcus aureus [1] = assay: Antimicrobial activity against methicillin-resistant Staphylococcus aureus USA300 after 20 hrs by two-fold broth dilution assay; format: functional; settings: USA300, 20 h
Escherichia coli [2] = assay: Antimicrobial activity against […] Escherichia coli AS19 after 20 hrs by two-fold broth dilution assay; format: functional; settings: AS19, 20 h
Staphylococcus aureus [3] = assay: Antimicrobial activity against […] Staphylococcus aureus RN4220 after 20 hrs by two-fold broth dilution assay; format: functional; settings: RN4220, 20 h
Escherichia coli [4] = assay: Binding affinity to Escherichia coli MRE600 23S rRNA assessed as protection of A2059 at 25 uM by footprinting assay relative to control in presence of DMS
Escherichia coli [5] = assay: Binding affinity to Escherichia coli MRE600 23S rRNA assessed as protection of U2585 at 5 uM by footprinting assay relative to control in presence of CMCT
Escherichia coli [6] = assay: Binding affinity to Escherichia coli MRE600 23S rRNA assessed as protection of U2506 at 5 uM by footprinting assay relative to control in presence of CMCT
Escherichia coli [7] = assay: Binding affinity to Escherichia coli MRE600 23S rRNA assessed as protection of U2506 at 50 uM by footprinting assay relative to control in presence of CMCT
Escherichia coli [8] = assay: Binding affinity to Escherichia coli MRE600 23S rRNA assessed as protection of U2585 at 50 uM by footprinting assay relative to control in presence of CMCT
Escherichia coli [9] = assay: Binding affinity to Escherichia coli MRE600 23S rRNA assessed as protection of A2062 at 25 uM by footprinting assay relative to control in presence of DMS

SMILES	MIC (Staphylococcus aureus [1]) [µg/mL]	MIC (Escherichia coli [2]) [µg/mL]	MIC (Staphylococcus aureus [3]) [µg/mL]	Activity (Escherichia coli [4])	Activity (Escherichia coli [5]) [%]	Activity (Escherichia coli [6]) [%]	Activity (Escherichia coli [7]) [%]	Activity (Escherichia coli [8]) [%]	Activity (Escherichia coli [9])
C=C[C@]1(C)C[C@@H](OC(=O)Cn2nncc2CCCn2cnc3c(N)ncnc32)[C@]2(C)[C@H](C)CC[C@]3(CCC(=O)[C@H]32)[C@@H](C)[C@@H]1O	> 4	4 (≈ 6.61 µM)	4 (≈ 6.61 µM)	inactive	–	–	–	–	–
C=C[C@]1(C)C[C@@H](OC(=O)CSCCN(CC)CC)[C@]2(C)[C@H](C)CC[C@]3(CCC(=O)[C@H]32)[C@@H](C)[C@@H]1O [TIAMULIN]	1 (≈ 2.03 µM)	0.25 (≈ 0.506 µM)	0.5 (≈ 1.01 µM)	–	41	5	3	40	–
C=C[C@]1(C)C[C@@H](OC(=O)Cn2cc(/C=C/Cn3cnc4c(N)ncnc43)nn2)[C@]2(C)[C@H](C)CC[C@]3(CCC(=O)[C@H]32)[C@@H](C)[C@@H]1O	1 (≈ 1.66 µM)	2 (≈ 3.32 µM)	1 (≈ 1.66 µM)	–	–	–	–	–	–
C=C[C@]1(C)C[C@@H](OC(=O)Cn2cc(CCCn3cnc4c(N)ncnc43)nn2)[C@]2(C)[C@H](C)CC[C@]3(CCC(=O)[C@H]32)[C@@H](C)[C@@H]1O	2 (≈ 3.31 µM)	2 (≈ 3.31 µM)	2 (≈ 3.31 µM)	–	–	–	–	–	–
C=C[C@]1(C)C[C@@H](OC(=O)Cn2cc(COCCn3cnc4c(N)ncnc43)nn2)[C@]2(C)[C@H](C)CC[C@]3(CCC(=O)[C@H]32)[C@@H](C)[C@@H]1O	> 4	> 4	> 4	–	27	9	4	14	–
C=C[C@]1(C)C[C@@H](OC(=O)Cn2cc(-c3cccc(-n4cnc5c(N)ncnc54)c3)nn2)[C@]2(C)[C@H](C)CC[C@]3(CCC(=O)[C@H]32)[C@@H](C)[C@@H]1O	0.06 (≈ 0.0939 µM)	0.5 (≈ 0.783 µM)	0.06 (≈ 0.0939 µM)	–	–	–	–	–	–
C=C[C@]1(C)C[C@@H](OC(=O)Cn2cc(-c3ccc(-n4cnc5c(N)ncnc54)cc3)nn2)[C@]2(C)[C@H](C)CC[C@]3(CCC(=O)[C@H]32)[C@@H](C)[C@@H]1O	0.5 (≈ 0.783 µM)	4 (≈ 6.26 µM)	0.5 (≈ 0.783 µM)	inactive	–	–	–	–	inactive
C=C[C@]1(C)C[C@@H](OC(=O)Cn2cc(CN(CC)CC)nn2)[C@]2(C)[C@H](C)CC[C@]3(CCC(=O)[C@H]32)[C@@H](C)[C@@H]1O	> 4	≥ 4	> 4	–	51	27	8	28	–
C=C[C@]1(C)C[C@@H](OC(=O)CSC(C)(C)CNC(=O)[C@H](N)C(C)C)[C@]2(C)[C@H](C)CC[C@]3(CCC(=O)[C@H]32)[C@@H](C)[C@@H]1O [VALNEMULIN]	0.06 (≈ 0.106 µM)	0.03 (≈ 0.0531 µM)	0.03 (≈ 0.0531 µM)	–	10	2	2	12	–
C=C[C@]1(C)C[C@@H](OC(=O)CO)[C@]2(C)[C@H](C)CC[C@]3(CCC(=O)[C@@H]32)[C@@H](C)[C@@H]1O	–	–	–	–	73	15	5	59	–
